Measured values published in patent US20230381205A1, “COMPOSITIONS AND METHODS FOR TREATING NEURONAL DISORDERS WITH CANNABINOIDS” (INMED PHARMACEUTICALS INC., priority 2020, published 2023).

Experiments:
[1] = tested on: differentiated SH-SY5Y human neuronal cells; experiment: MTT assay: cytotoxicity of the substance alone (primary screen, no added insult); type: cell-based
Method: (§1) Cell Culture and Differentiation: The SH-SY5Y human neuronal cell line was derived from neuroblastoma established from a metastatic bone tumor (patient with neuroblastoma). The cells were maintained in DMEM:F12 culture medium supplemented with 10% FBS and 1% Antibiotic-Antimycotic penicillin/streptomycin (growth medium) at 37° C. in a humidified atmosphere of 5% CO2. To induce neuronal differentiation of SH-SY5Y cells, culture media was replaced by a growth medium containing Retinoic Acid (RA) for 4-5 days at 37° C. in a humidified atmosphere of 5% CO2.
(§2) Compounds and Dosing Formulations: Selected cannabinoids: CBD, CBDA, CBC, CBG, CBGA, CBN, CBND and Δ^9-THC were procured from Cayman Chemicals and TRC. Ethanol (100%) was used as the solvent to prepare 1 and 10 mM stock solutions. Treatment concentrations for CBGA were prepared at 0.5 μM, 1.5 μM, 5 μM, 10 μM, 15 μM, 20 μM. Treatment concentrations for CBD, CBDA, CBC, CBN, CBND and Δ^9-THC were prepared at 0.5, 1.5, 5 and for CBG at 0.5 μM, 1.5 μM, 5 μM, 10 μM, 15 μM. Treatments were prepared directly in the control medium (DMEM:F12+5% FBS+1% Antibiotic-Antimycotic) by using appropriate stock solutions.
(§3) Evaluation of Cytotoxicity and Neuroprotection: Evaluation of cannabinoids neuroprotection and cytotoxicity on differentiated SH-SY5Y human neuronal cells was carried out by MTT (3-(4,5-dimethylthiazol-2-yl)-2,5-diphenyltetrazolium bromide) assay. Initially, cannabinoid cytotoxicity and neuroprotection were evaluated in a primary screen assay without the presence of cytotoxicity inducing insult agents. […] The Retinoic Acid (RA) differentiated SH-SY5Y neuronal cells were seeded onto 96-well plates (10,000 cells/well) in DMEM:F12 complete medium. Cells were differentiated for 4-5 days in the presence of RA.
(§4) MTT Assay: For the MTT assay, differentiated SH-SY5Y neuronal cells were treated with cannabinoids at various concentrations for 72 hrs in the presence of STSR at 75 nM, 100 nM, 150 nM and 200 nM or for 24 hrs in the presence of […] at 5 μM, respectively and processed to determine cytotoxicity. Briefly, 5 mg/mL of methylthiazolyldiphenyl-tetrazolium bromide (Sigma-Aldrich) stock solution was prepared in PBS. Following treatment of SH-SY5Y neuronal cells with cannabinoids for 72 hrs, the cells were incubated with 20 μL of MTT stock solution in 200 μL DMEM for 2 hrs at 37° C. Following subsequent washes with PBS, 200 μL of isopropanol was added to each well. The resulting change in color from dissolving formazan salt was immediately quantified using a spectrophotometer (BMG Labtech) at a wavelength of 570 nm. […] The results are illustrated in FIGS. 1-7.

[2] = tested on: differentiated SH-SY5Y human neuronal cells; experiment: MTT assay: neuroprotection from Staurosporin (STSR) induced cytotoxicity; type: cell-based
Method: as §1, §2, §3, §4

BAX = experiment: Western blot of BAX (pro-apoptotic marker); type: cell-based, human; conditions: CBGA alone or in the presence of Aβ1-42 (5 μM), FIG. 9
Method: (§5) For Western blot analysis, control and the treated cells were harvested and lysed in cold lysis buffer (150 mM NaCl, 50 mM Tris-HCl, 1% Triton X-100, 0.1% SDS, 0.5% Sodium deoxycholate, and 1% protease-phosphatase inhibitor mixture). The supernatants were collected and protein concentrations were determined using Bio-Rad protein assay (Bio-Rad Laboratories). Whole cell lysates (10 μg) were subjected to 10% SDS-polyacrylamide electrophoresis and transferred to nitrocellulose membrane. The membranes were blocked with 5% skim milk in TBS-T (Tris-buffered saline with 0.05% Tween-20) for 1 h at RT and blotted overnight in the presence of monoclonal anti-mouse MAP2 (1:1000, Sigma, cat. no. M1406), Tau (1:1000, Invitrogen, cat. no. AHB0042), TUJI (1:5000, BioLegend, cat. no. MMS-435P), BAX (1:1000, Cell signaling, cat. no. 2772) and rabbit polyclonal total and phosphorylated BCL (1:1000, Cell signaling, antibodies #2827 and 2870). The membranes were washed and incubated for 1 h in RT with either horseradish peroxidase (HRP)-conjugated goat anti-mouse (1:2000) or goat anti-rabbit antibodies (1:2000) (Jackson Lab). The membranes were washed and developed using chemiluminescence detection kit (Millipore, Billerica, MA, USA) on Alpha Innotech FluorChem 8800. β-Actin or Vinculin was used as a loading control. […]

BCL2 = experiment: Western blot of phosphorylated BCL2 (anti-apoptotic marker); type: cell-based, human; conditions: CBGA 5 μM and 10 μM on Aβ1-42 (5 μM) treated cells, FIG. 10
Method: as §5

Tuj1 = experiment: Western blot of Tuj1 neuritogenesis marker; type: cell-based, human; conditions: 5 μM and 10 μM, FIG. 13
Method: FIG. 13 CBGA upregulates the expression of Tuj1 neuritogenesis marker. Developmental changes in prominent intracellular marker of neurite growth, neuron-specific III β-tubulin (Tuj1) was determined using Western blot analysis. CBGA increased the expression of Tuj1 in differentiated SH-SY5Y cells. FIG. 13 also provides a histogram showing densitometric analysis of relative expression of Tuj1. β-Actin was used as a loading control. P<0.05 for CBGA 10 μM vs Control by One-Way ANOVA.
For Western blot analysis, control and the treated cells were harvested and lysed in cold lysis buffer (150 mM NaCl, 50 mM Tris-HCl, 1% Triton X-100, 0.1% SDS, 0.5% Sodium deoxycholate, and 1% protease-phosphatase inhibitor mixture). The supernatants were collected and protein concentrations were determined using Bio-Rad protein assay (Bio-Rad Laboratories). Whole cell lysates (10 μg) were subjected to 10% SDS-polyacrylamide electrophoresis and transferred to nitrocellulose membrane. […]

[3] = tested on: differentiated SH-SY5Y cells; experiment: Immunocytochemistry of TuJ1 and neuronal morphology; type: cell-based, human; conditions: 5 μM and 10 μM, FIG. 14
Method: FIG. 14 Morphological characterization of CBGA, THC and CBN mediated changes in differentiated SH-SY5Y cells. SH-SY5Y cells were differentiated with RA (10 μM) for 5 days as indicated. (A) Representative confocal photomicrographs showing changes in the cellular distribution of Tuj1 in RA induced differentiated SH-SY5Y cells following treatment with CBGA, THC and CBN. (B) Histogram showing the effect of CBGA, CBN, THC on neurite length.

MAP2 = experiment: Western blot of MAP2 neuritogenesis marker; type: cell-based, human; conditions: FIG. 15
Method: FIG. 15 CBGA upregulates the expression of MAP2 neuritogenesis marker. […] Changes in prominent intracellular marker of neurite growth, microtubule-associated protein 2 (MAP2) was determined using western blot analysis. Histogram showing densitometric analysis of relative expression of MAP2. β-Actin was used as a loading control.
as §5, with “2870).” for “2870). The membranes were washed and incubated for 1 h in RT with either horseradish peroxidase (HRP)-conjugated goat anti-mouse (1:2000) or goat anti-rabbit antibodies (1:2000) (Jackson Lab). The membranes were washed and developed using chemiluminescence detection kit (Millipore, Billerica, MA, USA) on Alpha Innotech FluorChem 8800. β-Actin or Vinculin was used as a loading control.”

In the case of `CCCCCc1cc(O)c(C/C=C(\C)CCC=C(C)C)c(O)c1C(=O)O` [CBGA, 3-[(2E)-3,7-dimethylocta-2,6-dienyl]-2,4-dihydroxy-6-pentylbenzoic acid], the “effect on survival in primary screen” value ([1]; 1.5 μM, 5 μM and 15 μM, FIG. 1) is reported as “pro-survival neuroprotective effect”, the “Cell Death (%) vs Vehicle Control” value ([1]; 15 μM, pre-screen, FIG. 1) is reported as “pro-survival” and the “cell death under basal conditions” value ([1]; CBGA alone up to 20 μM, FIG. 4) is reported as “did not result in cell death”. For the same compound, the “cell proliferation under basal conditions” value ([1]; CBGA alone up to 20 μM, FIG. 4) was “induced dose-dependent cell proliferation”, the “neuroprotection against STSR insult-induced cytotoxicity” value ([2]; 0.5 μM to 20 μM with STSR 75 nM, FIG. 5) was “significant dose-dependent neuroprotection” and the “neuroprotection against STSR-induced cytotoxicity” value ([2]; 0.5 μM, 1.5 μM and 5 μM with STSR 75 nM, 72 hrs, FIG. 3) was “significant neuroprotection”. For the same compound, the “Cell Death (%) vs STSR at 75 nM, significance” value ([2]; 5 μM with STSR 75 nM, compared to STSR-alone, One-Way ANOVA, FIG. 3) was “Statistically significant neuroprotection”, the “protection from STSR induced cytotoxicity” value ([2]; 5 μM, 10 μM and 15 μM with STSR 75 nM, FIG. 6) was “protected” and the “Cell Death (%) vs STSR, significance” value ([2]; 10 μM and 15 μM with STSR 75 nM, FIG. 6) was “Statistically significant neuroprotection”. For the same compound, the BAX expression (BAX) was “attenuates BAX expression to the control levels”, the BCL2 expression (BCL2) was “abrogates the downregulation of BCL2” and the “TuJ1 expression, Western blot” value (Tuj1) was “promotes upregulation of TuJ1 expression”. For the same compound, the “TuJ1 expression, immunocytochemistry” value [3] was “promotes upregulation of TuJ1 expression”, the “MAP2 expression, western blot” value (MAP2; CBGA 10 μM alone) was “increased the expression of MAP2” and the “MAP2 expression, western blot” value (MAP2; CBGA 10 μM with Aβ) was “abrogates Aβ mediated downregulation of MAP2 expression”.
